According to ChEMBL document CHEMBL2424561, “Discovery of new antitubercular agents by combining pyrazoline and benzoxazole pharmacophores: design, synthesis and insights into the binding interactions” (2013):
≈ marks a conversion by molar mass, not a printed value.

test system: Mycobacterium tuberculosis; experiment: Antitubercular activity against Mycobacterium tuberculosis H37Rv after 6 weeks; format: functional

Row | SMILES | MIC [µg/mL]
1 | CC(=O)N1N=C(c2ccccc2)CC1c1cc(Cl)c2oc(S)nc2c1 (stereo not given) | 1.25 (≈ 3.36 µM)
2 | CC(=O)N1N=C(c2ccccc2Br)CC1c1cc(Cl)c2oc(S)nc2c1 (stereo not given) | 6.25 (≈ 13.9 µM)
3 | COc1cc(C2CC(c3ccccc3)=NN2C(C)=O)cc(N)c1O (stereo not given) | 25 (≈ 76.8 µM)
4 | COc1cc(C2CC(c3ccc(Cl)cc3Cl)=NN2C(C)=O)cc(N)c1O (stereo not given) | 12.5 (≈ 31.7 µM)
5 | COc1cc(C2CC(c3ccc(F)cc3)=NN2C(C)=O)cc(N)c1O (stereo not given) | 12.5 (≈ 36.4 µM)
6 | COc1cc(C2CC(c3ccccc3Br)=NN2C(C)=O)cc(N)c1O (stereo not given) | 12.5 (≈ 30.9 µM)
7 | CC(=O)N1N=C(c2ccccc2)CC1c1ccc(O)c(N)c1 (stereo not given) | 1.25 (≈ 4.23 µM)
8 | CC(=O)N1N=C(c2ccccc2Br)CC1c1ccc(O)c(N)c1 (stereo not given) | 0.625 (≈ 1.67 µM)
9 | CC(=O)N1N=C(c2ccccc2)CC1c1cc(N)c(O)c(Cl)c1 (stereo not given) | 3.25 (≈ 9.85 µM)
10 | CC(=O)N1N=C(c2ccccc2Br)CC1c1cc(N)c(O)c(Cl)c1 (stereo not given) | 12.5 (≈ 30.6 µM)
11 | COc1cc(C2CC(c3ccccc3)=NN2C(C)=O)cc2nc(N)oc12 (stereo not given) | 0.625 (≈ 1.78 µM)
12 | COc1cc(C2CC(c3ccc(Cl)cc3Cl)=NN2C(C)=O)cc2nc(N)oc12 (stereo not given) | 12.5 (≈ 29.8 µM)
13 | COc1cc(C2CC(c3ccc(F)cc3)=NN2C(C)=O)cc2nc(N)oc12 (stereo not given) | 6.25 (≈ 17 µM)
14 | COc1cc(C2CC(c3ccccc3Br)=NN2C(C)=O)cc2nc(N)oc12 (stereo not given) | 12.5 (≈ 29.1 µM)
15 | CC(=O)N1N=C(c2ccccc2)CC1c1ccc2oc(N)nc2c1 (stereo not given) | 25 (≈ 78 µM)
16 | CC(=O)N1N=C(c2ccccc2Br)CC1c1ccc2oc(N)nc2c1 (stereo not given) | 25 (≈ 62.6 µM)
17 | CC(=O)N1N=C(c2ccccc2)CC1c1cc(Cl)c2oc(N)nc2c1 (stereo not given) | 25 (≈ 70.5 µM)
18 | CC(=O)N1N=C(c2ccccc2Br)CC1c1cc(Cl)c2oc(N)nc2c1 (stereo not given) | 3.25 (≈ 7.49 µM)
19 | COc1cc(C2CC(c3ccccc3)=NN2C(C)=O)cc2nc(S)oc12 (stereo not given) | 6.25 (≈ 17 µM)
20 | COc1cc(C2CC(c3ccc(Cl)cc3Cl)=NN2C(C)=O)cc2nc(S)oc12 (stereo not given) | 6.25 (≈ 14.3 µM)
21 | COc1cc(C2CC(c3ccc(F)cc3)=NN2C(C)=O)cc2nc(S)oc12 (stereo not given) | 12.5 (≈ 32.4 µM)
22 | COc1cc(C2CC(c3ccccc3Br)=NN2C(C)=O)cc2nc(S)oc12 (stereo not given) | 12.5 (≈ 28 µM)
23 | CC(=O)N1N=C(c2ccccc2)CC1c1ccc2oc(S)nc2c1 (stereo not given) | 25 (≈ 74.1 µM)
24 | CC(=O)N1N=C(c2ccccc2Br)CC1c1ccc2oc(S)nc2c1 (stereo not given) | 12.5 (≈ 30 µM)
25 | NNC(=O)c1ccncc1 [ISONIAZID] | 0.625 (≈ 4.56 µM)
